This passage reports IC50 results from ChEMBL document CHEMBL3639321, “Triazolopyridine compounds as PIM kinase inhibitors” (2013).

pIC50: −log10 of the molar value.

The target in test [1] is Serine/threonine-protein kinase pim-3 (Rattus norvegicus, UniProt O70444). Nature of the test: PIM-3 Enzyme Assay: The assay for the determination of PIM activity is based on the incorporation of [33P] ATP into PIM2tide substrate and capture of the radiolabeled peptide onto a Whatman P81 (phosphocellulose) filter plate. Assay mixtures contained 30 uM [gamma-33P] ATP (20 uCi/mL), 3.75 uM PIM2tide and 0.5 nM recombinant rat PIM-3 in place of PIM-1.

In test [2] the target is Serine/threonine-protein kinase pim-2 (Homo sapiens, UniProt Q9P1W9). Nature of the test: PIM-2 Enzyme Assay: The assay for the determination of PIM activity is based on the incorporation of [33P] ATP into PIM2tide substrate and capture of the radiolabeled peptide onto a Whatman P81 (phosphocellulose) filter plate. Assay mixtures contained 4 uM [gamma-33P] ATP (20 uCi/mL), 1.0 uM PIM2tide and […] PIM-2 in place of PIM-1.
Sequence of Serine/threonine-protein kinase pim-2 (Q9P1W9 whole entry): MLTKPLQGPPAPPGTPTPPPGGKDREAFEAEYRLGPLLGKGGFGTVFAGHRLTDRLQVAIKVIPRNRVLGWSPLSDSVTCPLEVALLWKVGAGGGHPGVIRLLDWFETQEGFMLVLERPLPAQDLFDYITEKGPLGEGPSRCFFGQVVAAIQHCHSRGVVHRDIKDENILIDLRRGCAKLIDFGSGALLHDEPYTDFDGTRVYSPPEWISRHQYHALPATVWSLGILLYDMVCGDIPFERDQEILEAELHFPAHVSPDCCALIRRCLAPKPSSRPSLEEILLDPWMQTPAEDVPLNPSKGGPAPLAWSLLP

For `CC1(C)CC(Nc2cccc3ccc(-c4nnc5ccccn45)nc23)CC(C)(C)N1`, the pIC50 is 6.35 in test [1] and no more than 5.00 in test [2].

A word on the pIC50: it is the IC50 on a negative log10 scale, so that one unit is a factor of ten.
